One assay relates to human AML. The assay is described as follows: in vivo mouse model of human AML (procedure of Example 112). The conditions noted are these: oral administration, FIG. 1.
The test system of assay [1] is MV4-11 cells. Nature of the assay: MV4-11 cellular proliferative assay, Assay Format A (CellTiter-Glo, 120 h). Format: cell-based. The conditions noted are these: Homo sapiens, Assay format A, 120 h, read-out: IC50 (MV4-11 cellular proliferative assay). A digest of the protocol:
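MV4-11 cells seeded at 50 cells/well and exposed for 120 h to compound (10 semi-log dilutions, top 30 μM) or DMSO. Viability by CellTiter-Glo luminescence, normalised to DMSO and reference-compound wells; AC50 from Hill fit.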

For another assay, the target named is T1, MLLT1 (Homo sapiens, UniProt Q03111).
T1 sequence (Q03111 1-559): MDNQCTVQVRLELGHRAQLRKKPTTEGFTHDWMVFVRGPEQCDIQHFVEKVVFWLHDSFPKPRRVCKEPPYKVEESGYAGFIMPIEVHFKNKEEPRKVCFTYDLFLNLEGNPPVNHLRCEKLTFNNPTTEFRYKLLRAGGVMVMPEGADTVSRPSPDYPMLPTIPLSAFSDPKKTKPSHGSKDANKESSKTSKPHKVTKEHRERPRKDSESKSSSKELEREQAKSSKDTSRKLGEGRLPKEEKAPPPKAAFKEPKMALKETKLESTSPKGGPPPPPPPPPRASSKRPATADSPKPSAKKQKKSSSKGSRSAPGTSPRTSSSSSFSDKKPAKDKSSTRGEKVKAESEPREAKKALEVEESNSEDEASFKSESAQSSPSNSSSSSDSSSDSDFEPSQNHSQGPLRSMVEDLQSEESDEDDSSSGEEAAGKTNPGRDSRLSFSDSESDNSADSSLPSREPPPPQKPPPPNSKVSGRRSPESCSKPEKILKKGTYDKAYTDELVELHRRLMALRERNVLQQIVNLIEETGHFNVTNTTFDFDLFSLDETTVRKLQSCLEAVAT
The assay is described as follows: MLLT1 DC50 and Dmax determination in MV4-11 cells (JESS, 4 h). Also on record: endogenous in cells; host or cells: MV4-11 (ATCC CRL-9591). The following applies: MLLT1 degradation. Format: cell-based. How it is done:
MLLT1 degradation efficacy of compounds was tested in an automated chemiluminescent detection system (JESS, Cat #004-650). MV4-11 (#CRL-9591, ATCC) were seeded at a density of 1.2 million cells/well in a non-treated 6-well cell culture plate in 2.4 mL of complete medium (IMDM+10% FBS+1× Penicillin-Streptomycin). 10 mM DMSO stocks were prepared, and cells were treated with eight concentrations of test compounds, starting from 100 nM, 5-fold dilution, at a final DMSO concentration of 0.1% and incubated for 4 h at 37° C., 5% CO2. Post incubation, cells were centrifuged, washed with HBSS and lysed in 60 μL of RIPA buffer supplemented with Protease inhibitors (sc-24948; Santa Cruz). Protein estimation was done using BCA protein assay kit (23228; Pierce). 4 gg protein lysate (4 μL of 1 μg/μL lysate) was loaded into each well of the JESS cartridge (SM-W004; Bio-techne) and the JESS run was performed using 1:900 dilution of anti-human MLLT1 antibody (ABE2596; Merck) and 1:1200 dilution of anti-human GAPDH antibody (2118; Cell signaling technology) with anti-rabbit secondary detection module (DM-001; Bio-Techne). Post run, data was analysed using “Compass for SW” software for chemiluminescent detection. Peak fit was done using “dropped lines” method. Peak area for MLLT1 and GAPDH was used for the calculation of MLLT1 degradation with respect to DMSO control. Data was shown as “% degradation”. % Degradation was plotted against the respective doses (test compound concentration) and dose-response curve (DRC) was generated using four-parameter logistic equation (non-linear regression). Following parameters for each DRC was captured: DC50 (concentration in nM at which degradation is 50%, interpolated from standard curve and transformed to linear scale), Dmax (maximum % degradation observed). DC50 and Dmax data are captured in Table 7 for Example 1 and Example 110, which is a comparative example.

The test system of assay [2] is MV4-11 cells. Nature of the assay: MV4-11 cellular proliferative assay, Assay Format B (CTG 2.0, 168 h). Format: cell-based. The following applies: Homo sapiens, Assay Method B, Table 7, read-out: MV4-11 Antiproliferation IC50. A digest of the protocol: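 Cells seeded at 600/well in IMDM + 10% FBS, incubated overnight, then exposed 168 h (7 days) at 37 °C to 10 concentrations, 3-fold dilutions from 1 uM or 100 nM top dose (0.3% DMSO final). Viability by CTG 2.0 luminescence as % of DMSO control; curves fitted by four-parameter logistic regression.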

Where only a bound is given, the exact number is not on record here.

From patent publication US20260199484A1, “PROTAC DEGRADERS OF MLLT1 AND/OR MLLT3” (DARK BLUE THERAPEUTICS LTD, priority 2024, published 2026) come the findings set out here.

For orientation: DC50 means the midpoint of the concentration-degradation curve. For orientation: Dmax means the largest share of the target that was removed. Consider `Cc1nn(CCCCCCCC#Cc2cccc3c2CN(C2CCC(=O)NC2=O)C3=O)c2cc(C(=O)Nc3cc4[nH]c([C@H]5CCCN5C)cc4cn3)ccc12` (mixture of isomers) [Example 1, 1-(9-(2-(2,6-dioxopiperidin-3-yl)-1-oxoisoindolin-4-yl)non-8-yn-1-yl)-3-methyl-N-(2-((R)-1-methylpyrrolidin-2-yl)-1H-pyrrolo[3,2-c]pyridin-6-yl)-1H-indazole-6-carboxamide], for which, in the assay with human AML, the tumour growth entry is on record as “reduction in tumour growth”. Moreover, the IC50 with MV4-11 cells [1] is less than 100 nM; in the assay on MV4-11 cells [2], 6.5 nM. Further, the DC50 at MLLT1 came out at 0.5 nM. For the same compound, the Dmax on MLLT1 (maximum % degradation observed) turned out to be 87%.
